# Tested on: surface layers of the skin (superficial stratum corneum)
# Assay: Moisturizing efficiency of gel evaluated by corneometry
# Type: in vivo, human
# Conditions: for mean hydration value (Corneometer capacitance): gel 6% by weight + 1% carbomer, around 2 mg/cm^2, inner forearm, ten volunteers; for Mean variations in % of hydration: (T…h-T0)/T0*100, gel 6% by weight
# Description: For this, these polyols were incorporated into a cosmetic preparation for topical use in gel form. […] The placebo consists only of 1% by weight of gelling carbomer in water. The moisturizing efficiency of each of the preparations for topical use was evaluated by corneometry. Corneometry is a scientifically recognized method for measuring the hydration of the surface layers of the skin. It is based on the determination of the capacitance of the superficial stratum corneum. The study was carried out with ten healthy volunteers aged from 18 to 65 years old. The moisturizing efficiency of each of the five formulae was evaluated 1 hour, 2 hours and 4 hours after its application in the laboratory on the inner face of the forearm. […] For each formula, an amount of around 2 mg/cm^2 was applied to an area of 3×3 cm, in non-occlusive epicutaneous mode. In addition to the zones treated with the five formulae, two additional zones were evaluated: one treated with a placebo and the other without treatment for the duration of the study. The measurements were carried out with a Corneometer® CM285 included in a Multiprobe Adapter System MPA® (Courage-Khazaka GmbH, Germany). The instrument determines the capacitance of the epidermis, which is proportional to the water content thereof, at a depth of around 15 μm. This method is based on the difference between the electrical permittivity of the water which is 81 and that of other substances (<7). The probe of the Corneometer (surface area of 49 mm^2) is positioned perpendicular to the test area which was delimited beforehand with a pencil. The measurement of the capacitance lasts 1 second. Each measurement is carried out twice and the average of the two measurements is noted. The instrument gives the values in arbitrary units ranging from 0 to 130, with an error margin of ±3%. Each volunteer rested for around 1 minute in an air-conditioned room before each measurement with the Corneometer® in order to avoid abnormal results due to excessive perspiration or stress. Table 2 below reports the mean hydration values expressed in arbitrary units (AU).
SMILES,"mean hydration value (Corneometer capacitance) (T0, before application) [AU]",mean hydration value (Corneometer capacitance) (T1 h after application) [AU],Mean variations in % of hydration (T1 h vs T0) [%],mean hydration value (Corneometer capacitance) (T2 h after application) [AU],Mean variations in % of hydration (T2 h vs T0) [%],mean hydration value (Corneometer capacitance) (T4 h after application) [AU],Mean variations in % of hydration (T4 h vs T0) [%],"moisturizing power given to the gel (in words, short-term hydration and maintenance over time (T4h vs T0))"
C[N+](C)(C)CC(=O)O [Betaine],43.39,55.61,28.2,54.30,25.1,50.74,16.9,
OCC(O)CO [Glycerol],42.03,57.05,35.7,56.15,33.6,56.57,34.6,
"O[C@@H]1CO[C@H]2[C@@H]1OC[C@@H]2O [Isosorbide, 1,4:3,6-dianhydrosorbitol]",46.54,56.60,21.6,52.88,13.6,52.50,12.8,"satisfactory moisturizing power, comparable to that of betaine"
OC[C@@H](O)[C@@H](O)[C@H](O)[C@@H](O)CO [Sorbitol],48.60,54.16,11.4,49.11,1.0,46.91,−3.5,
OC[C@@H](O)[C@H](O)[C@@H](O)CO [Xylitol],45.94,55.37,20.5,52.68,14.7,45.28,−1.4,
